Marks after values point to notes of the source that are not given here.
Columns and labels:
Assay type in all cases: in vivo, SD rats
[1] = test system: rat models with focal cerebral ischemia-reperfusion (tMCAO); experiment: Rotarod test (latent period of falling) in tMCAO model rats; details: Gavage, 3 × 10^−5 mol/kg, 3 administrations, about 24 h after last administration, x ± s
Description: (§1) Rat models with focal cerebral ischemia-reperfusion (tMCAO) were prepared by using a suture-occluded method, and therapeutic effects of the test drugs on the tMCAO model rats were investigated.
(§2) A specific modeling method for the rat models with focal cerebral ischemia-reperfusion (tMCAO) is as follows. At 12 h before surgery, the rats were fed at about 30 g/piece. After induced anesthesia with 3-4% isoflurane and maintained anesthesia with 1.5-2.5% isoflurane were performed, the rats were placed at supine positions on an operating table at a constant temperature of 37° C. The skin in middle lines of necks was cut, subcutaneous tissues and muscles were bluntly separated, and common carotid arteries on right sides, internal carotid arteries and external carotid arteries were separated. Two ligation threads were allowed to penetrate through the external carotid arteries to ligate distal ends, an artery clamp was placed at the common carotid arteries and the internal carotid arteries, respectively, small incisions were made at 45° diagonally on the external carotid arteries at about 4 mm away from bifurcations of the common carotid arteries, and suitable suture occlusions were inserted to gently ligate proximal ends. The external carotid arteries were cut, directions and angles of the suture occlusions were adjusted, the suture occlusions were gently pushed and inserted into the internal carotid arteries, and then the artery clamps were released. The suture occlusions were continuously inserted until black dot marks of the suture occlusions reached junctions of the internal carotid arteries and the common carotid arteries at a length of about 18-20 mm. The proximal ends of the external carotid arteries were tightened, the suture occlusions were fixed, the skin was sutured after it was confirmed that there was no bleeding, the body temperature of the rats was maintained, and meloxicam as an analgesic drug was injected subcutaneously at 1 mg/kg.
(§3) At 2 h after ischemia, induced anesthesia with 3-4% isoflurane and maintained anesthesia with 1.5-2.5% isoflurane were performed, the skin sutures were cut, the ligation threads at the proximal ends of the external carotid arteries were opened, the suture occlusions were taken out, reperfusion was performed, ligation was performed again, and the skin was sutured after it was confirmed that there was no bleeding. In a sham-operated control group, other steps were the same as above except that the suture occlusions were inserted and pulled out immediately and the reperfusion was not required. After the surgery, the rats were allowed to lie prostrate and return to a cage.
(§4) When the animals were awake after modeling, behavioral scoring was performed on the animals with reference to a 4-point scoring standard of Zea longa. The animals with scores of 1-3 points were judged as successfully modeled animals, and the animals not meeting requirements were eliminated.
(§5) Method: SPF-grade male SD rats were used, the various tMCAO rat models were prepared by using the suture-occluded method, and the successfully modeled animals were randomly divided into 6 groups including a model control group, a test drug group 1, a test drug group 2, a test drug group 3, a test drug group 4 and a test drug group 5, with 6 or more animals in each group. In addition, the sham-operated control group was set, which involved 6 animals with the suture occlusions inserted and pulled out immediately in the surgery. […]

[2] = test system: rat models with focal cerebral ischemia-reperfusion (tMCAO); experiment: Behavioral scoring of tMCAO model rats; details: about 24 h after last administration, x ± s
Description: as §1, §2, §3, §4, §5

[3] = test system: rat models with focal cerebral ischemia-reperfusion (tMCAO); experiment: Cerebral blood flow in tMCAO model rats; details: x ± s; for Cerebral blood flow 24 h after last administration / Cerebral blood flow improvement percentage / Recovery percentage of cerebral blood flow 24 h after last administration: 24 h after last of 3 administrations, 3×10^−5 mol/kg; for Cerebral blood flow before administration / Decrease percentage of cerebral blood flow before administration: after ischemia, before first administration; for Cerebral blood flow before ischemia: baseline before surgery, before any administration
Description: as §1, §2, §3, §4
as §5, with “surgery. At 4 h after the cerebral ischemia (at 4 h after the suture occlusions were pulled out in the sham-operated group), the various groups were given the various drugs or a vehicle for the first time. In each group, an administration dose was 3×10^−5 mol/kg, an administration volume was 3 mL/kg, administration was performed for a total of 3 times, and an administration time interval of every two times was 24 h.” for “surgery.”

[4] = test system: rat models with focal cerebral ischemia-reperfusion (tMCAO); experiment: Percentage of cerebral infarction area (TTC staining) in tMCAO model rats; details: Gavage, about 24 h after last administration, x ± s
Description: as §1, §2, §3, §4, §5

[5] = test system: rat models with focal cerebral ischemia-reperfusion (tMCAO); experiment: Drug efficacy test in tMCAO model rats, overall result; details: latent period of falling, behavioral scores, infarction area, cerebral blood flow
Description: as §1
A specific modeling method for the rat models with focal cerebral ischemia-reperfusion (tMCAO) is as follows. At 12 h before surgery, the rats were fed at about 30 g/piece. After induced anesthesia with 3-4% isoflurane and maintained anesthesia with 1.5-2.5% isoflurane were performed, the rats were placed at supine positions on an operating table at a constant temperature of 37° C. The skin in middle lines of necks was cut, subcutaneous tissues and muscles were bluntly separated, and common carotid arteries on right sides, internal carotid arteries and external carotid arteries were separated. Two ligation threads were allowed to penetrate through the external carotid arteries to ligate distal ends, an artery clamp was placed at the common carotid arteries and the internal carotid arteries, respectively, small incisions were made at 45° diagonally on the external carotid arteries at about 4 mm away from bifurcations of the common carotid arteries, and suitable suture occlusions were inserted to gently ligate proximal ends. […]

Row | Structure (SMILES) | Latent period of falling (rotarod test) [1] | Behavioral score ([2]; Gavage, 6 × 10^−5 mol/kg) | Cerebral blood flow 24 h after last administration [3] [BPU] | Cerebral blood flow improvement percentage [3] | Recovery percentage of cerebral blood flow 24 h after last administration [3] | Cerebral blood flow before administration [3] [BPU] | Decrease percentage of cerebral blood flow before administration [3] [%] | Cerebral blood flow before ischemia [3] [BPU] | Percentage of cerebral infarction area ([4]; 6 × 10^−5 mol/kg) | Behavioral score ([2]; route printed as Intravenous injection and Gavage, 3 × 10^−5 mol/kg) | Percentage of cerebral infarction area ([4]; 3 × 10^−5 mol/kg) [%] | Behavioral score ([2]; Gavage, 3 × 10^−5 mol/kg) | Overall therapeutic effect in tMCAO rats (in words; vs model control group and between test drug groups) [5]
1 | Cc1cc(OC(=O)C(C)(C)C)n(-c2nc(C)c(C)nc2C)n1 [Test drug 5, 3-methyl-1-(3,5,6-trimethylpyrazin-2-yl)-1H-pyrazol-5-pivalate] | 31.5 ± 14.5^ s | 2.7 ± 0.9 | 275.0 ± 20.5 | 21.2 ± 4.7*^ % | 81.6 ± 5.9**^ % | 203.3 ± 8.1 | 39.5 ± 4.4 | 337.9 ± 26.0 | 2.9 ± 1.0 % | – | – | – | –
2 | Cc1cc(OC(=O)c2cccnc2)n(-c2nc(C)c(C)nc2C)n1 [Test drug 1, 3-methyl-1-(3,5,6-trimethylpyrazin-2-yl)-1H-pyrazol-5-nicotinate] | 48.7 ± 14.0 s | – | 304.8 ± 12.7 | 28.7 ± 4.9 % | 87.8 ± 2.0 % | 204.6 ± 10.3 | 40.9 ± 5.2 | 347.5 ± 19.3 | – | 1.9 ± 0.6 | 4.6 ± 1.2 | – | –
3 | CC(=O)Oc1cc(C)nn1-c1nc(C)c(C)nc1C [Test drug 2, 3-methyl-1-(3,5,6-trimethylpyrazin-2-yl)-1H-pyrazol-5-acetate] | 35.2 ± 23.3 s | – | 367.8 ± 36.9 | 20.9 ± 13.8 % | 79.3 ± 8.9 % | 213.3 ± 16.6 | 41.6 ± 8.6 | 371.8 ± 51.6 | – | – | 5.8 ± 2.2 | 2.3 ± 0.7 | –
4 | Cc1cc(OC(=O)c2ccccc2)n(-c2nc(C)c(C)nc2C)n1 [Test drug 4, 3-methyl-1-(3,5,6-trimethylpyrazin-2-yl)-1H-pyrazol-5-yl-benzoate] | 43.8 ± 14.9 s | – | 321.2 ± 17.0 | 27.0 ± 7.3 % | 87.0 ± 5.8**^& % | 220.8 ± 16.4 | 40.0 ± 7.1 | 370.2 ± 17.2 | – | – | 4.5 ± 2.5 | 1.7 ± 0.7 | better than the groups 2 and 5
5 | CC(=O)Oc1ccccc1C(=O)Oc1cc(C)nn1-c1nc(C)c(C)nc1C [Test drug 3, 3-methyl-1-(3,5,6-trimethylpyrazin-2-yl)-1H-pyrazol-5-yl-2-acetoxybenzoate] | 49.7 ± 12.3 s | 1.6 ± 0.7 | 321.4 ± 54.0 | 30.3 ± 7.1 % | 90.1 ± 4.2**^&& % | 210.3 ± 15.1 | 40.1 ± 6.3 | 356.5 ± 56.6 | 3.5 ± 1.6**^& % | – | – | – | better than the groups 2 and 5

Reference: patent US20260159510A1, “HETEROCYCLIC COMPOUND, PREPARATION METHOD THEREFOR AND USE THEREOF” (GUANGZHOU DAGUANG PHARMACEUTICAL CO., LTD., priority 2022, published 2026)
